Results: the supplement of paper PMC10011410

Columns and labels:
U-2 OS [1] = assay: cell painting activity score (Mahalanobis distance from DMSO wells); higher = stronger morphological phenotype; details: 24 h
Description: (§1)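 Cell painting in U-2 OS cells (384-well, about 1,500 cells per well), compound exposure 24 h, usually six 2-fold concentrations from 20 to 0.625 uM (some compounds higher or lower). Relative cell count is the cell number per well relative to DMSO wells. Activity score is the Mahalanobis distance of the morphological profile from DMSO control wells. Mean of four technical replicate plates.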

U-2 OS [2] = assay: relative cell count vs DMSO (cell painting) (fraction of DMSO control); higher = more cells remaining (less cytotoxic); details: 24 h
Description: as §1

U-2 OS [3] = assay: AUC of culture confluence over time (live-cell imaging) (AUC (confluence % x time)); higher = more confluent culture (less growth inhibition)
Description: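 Live-cell Incucyte imaging of U-2 OS cells in F-12K medium. Compounds were tested mostly at 5, 10 and 20 uM, and cells were imaged every 4 h for up to 60 h. Value is the area under the curve of phase-contrast confluence over time.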

| Structure (SMILES) | cell painting activity score (U-2 OS [1]; 0.625 µM) | cell painting activity score (U-2 OS [1]; 1.25 µM) | cell painting activity score (U-2 OS [1]; 2.5 µM) | cell painting activity score (U-2 OS [1]; 5 µM) | cell painting activity score (U-2 OS [1]; 10 µM) | cell painting activity score (U-2 OS [1]; 20 µM) | relative cell count (U-2 OS [2]; 0.625 µM) | relative cell count (U-2 OS [2]; 1.25 µM) | relative cell count (U-2 OS [2]; 2.5 µM) | relative cell count (U-2 OS [2]; 5 µM) | relative cell count (U-2 OS [2]; 10 µM) | relative cell count (U-2 OS [2]; 20 µM) | AUC of culture confluence over time (U-2 OS [3]; 5 µM) | AUC of culture confluence over time (U-2 OS [3]; 10 µM) | AUC of culture confluence over time (U-2 OS [3]; 20 µM) |
| --- | --- | --- | --- | --- | --- | --- | --- | --- | --- | --- | --- | --- | --- | --- | --- |
| C/C1=C/C(=O)O[C@@H]2C[C@@H](CC[C@H](C)/C=C\CC1)O[C@@](O)([C@@H]1CSC(=O)N1)C2 | 8.28 | 14.2 | 15.4 | 14.9 | 17.7 | 20 | 0.941 | 0.878 | 0.759 | 0.691 | 0.664 | 0.53 | 27.1 | 20.9 | 20.7 |
| CC[C@H](C)[C@@H]1NC(=O)CNC(=O)[C@@H]2Cc3c([nH]c4cc(O)ccc34)S(=O)C[C@H](NC(=O)CNC1=O)C(=O)N[C@@H](CC(=O)O)C(=O)N1C[C@H](O)C[C@H]1C(=O)N[C@@H]([C@@H](C)[C@@H](O)CO)C(=O)N2 (stereo not given in full) | 5.47 | 4.77 | 6.25 | 4.42 | 11.2 | 29.1 | 0.979 | 0.941 | 0.975 | 0.992 | 0.958 | 0.862 | 26.4 | 24.6 | 16.3 |
| C[C@@H]1Cc2c(Cl)cc(C(=O)N[C@@H](Cc3ccccc3)C(=O)O)c(O)c2C(=O)O1 | 3.03 | 4 | 4.76 | 5.78 | 10.6 | 16.6 | 1 | 0.998 | 0.979 | 0.954 | 0.805 | 0.503 | 40.8 | 30.3 | 17.7 |
| O=c1cc(N2CCOCC2)oc2c(-c3ccccc3)cccc12 | 3.52 | 4.47 | 4.5 | 5.36 | 6.81 | 9.26 | 1.02 | 0.978 | 0.971 | 0.962 | 1 | 0.948 | 42.2 | 40.7 | 31.5 |
| CC(C)=C[C@@H]1CO[C@]23C[C@]4(CO2)[C@H](CC[C@@H]2[C@@]5(C)CC[C@H](O[C@@H]6OC[C@H](O)[C@H](O[C@@H]7O[C@H](CO)[C@@H](O)[C@H](O)[C@H]7O)[C@H]6O[C@@H]6O[C@@H](CO)[C@H](O)[C@H]6O)C(C)(C)[C@@H]5CC[C@]24C)[C@H]3[C@@]1(C)O | 4.86 | 4.19 | 6.77 | 9.86 | 22.5 | 29.1 | 0.956 | 0.977 | 1.02 | 0.762 | 0.393 | 0.0257 | 44.4 | 15.8 | 23.9 |
| C/C(=C\c1csc(C)n1)[C@@H]1C[C@@H]2O[C@]2(C)CCC[C@H](C)[C@H](O)[C@@H](C)C(=O)C(C)(C)[C@@H](O)CC(=O)O1 | 21.1 | 20.7 | 22.7 | 22.5 | 23.6 | 23.9 | 0.22 | 0.223 | 0.284 | 0.468 | 0.553 | 0.521 | 21.8 | 21.4 | 21.2 |
| CC1OC2=C(C(=O)C(=O)c3ccccc32)C1(C)C (stereo not given) | 15 | 17.1 | 20.7 | 25.1 | 33.8 | 34.2 | 0.845 | 0.561 | 0.299 | 0.207 | 0.14 | 0.134 | 19.5 | 18.5 | 16 |
| C[C@]12O[C@H](C[C@]1(O)CO)n1c3ccccc3c3c4c(c5c6ccccc6n2c5c31)CNC4=O | 20.6 | 21.4 | 22.3 | 23.1 | 23.1 | 22.8 | 0.654 | 0.525 | 0.521 | 0.516 | 0.453 | 0.138 | 25.9 | 23.6 | 23.8 |
| CN1CCN(CCOc2cc(OC3CCOCC3)c3c(Nc4c(Cl)ccc5c4OCO5)ncnc3c2)CC1 | 8.87 | 8.9 | 9.68 | 9.8 | 10.5 | 11.3 | 0.997 | 0.953 | 0.993 | 0.997 | 0.991 | 0.933 | 39.5 | 33.5 | 34.5 |
| COc1ccc2c(c[n+](C)c3c4cc5c(cc4ccc23)OCO5)c1OC | 5.1 | 3.72 | 14.6 | 14.5 | 13.8 | 16.2 | 0.994 | 1.03 | 1.01 | 0.982 | 0.695 | 0.0282 | 46.8 | 41 | 11.4 |
| COc1cc([C@@H]2c3cc4c(cc3[C@H](O)[C@H]3COC(=O)[C@H]23)OCO4)cc(OC)c1OC | 23.6 | 24.1 | 23.9 | 21 | 21 | 22 | 0.209 | 0.195 | 0.195 | 0.199 | 0.187 | 0.179 | 15.2 | 15.6 | 20.8 |
| CC(C)C[C@H](NC(=O)[C@H](CCc1ccccc1)NC(=O)CN1CCOCC1)C(=O)N[C@@H](Cc1ccccc1)C(=O)N[C@@H](CC(C)C)C(=O)[C@@]1(C)CO1 | 30.8 | 31.9 | 32.5 | 31.5 | 28.8 | 29.7 | 0.149 | 0.136 | 0.125 | 0.141 | 0.143 | 0.149 | 18.4 | 17.5 | 16.1 |
| O=C(OC[C@H]1O[C@@H](OC(=O)c2cc(O)c(O)c(OC(=O)c3cc(O)c(O)c(O)c3)c2)[C@H](OC(=O)c2cc(O)c(O)c(OC(=O)c3cc(O)c(O)c(O)c3)c2)[C@@H](OC(=O)c2cc(O)c(O)c(OC(=O)c3cc(O)c(O)c(O)c3)c2)[C@@H]1OC(=O)c1cc(O)c(O)c(OC(=O)c2cc(O)c(O)c(O)c2)c1)c1cc(O)c(O)c(OC(=O)c2cc(O)c(O)c(O)c2)c1 | 4.17 | 4.59 | 6.15 | 5.91 | 6.39 | 8.09 | 1.02 | 1.02 | 1.02 | 0.945 | 0.945 | 0.697 | 48.2 | 48.5 | 27.9 |
| CN(N=O)C(=O)N[C@@H]1[C@@H](O)[C@H](O)[C@@H](CO)O[C@@H]1O | 12.4 | 14.8 | 14.4 | 13.9 | 10.4 | 10.8 | 1.04 | 0.929 | 0.893 | 0.893 | 0.88 | 0.851 | 48.1 | 46.7 | 48.1 |
| S=P(N1CC1)(N1CC1)N1CC1 | 3.3 | 3.39 | 3.97 | 4.44 | 5.38 | 7.45 | 1.06 | 0.967 | 0.939 | 0.904 | 0.942 | 0.856 | 39.2 | 31 | 32.9 |
| CS(=O)(=O)OCCCCOS(C)(=O)=O | 3.32 | 4.51 | 5.59 | 7.16 | 6.02 | 10 | 0.959 | 0.863 | 0.85 | 0.682 | 0.679 | 0.295 | 49.5 | 47.2 | 49.5 |
| CC1=C2C(=CO[C@H](C)[C@H]2C)C(=O)C(C(=O)O)=C1O | 4.49 | 5.94 | 4.77 | 8.7 | 6.33 | 10.3 | 0.985 | 0.942 | 0.951 | 0.893 | 0.935 | 0.793 | 48.9 | 45.6 | 42 |
| C[C@H]1O[C@@H](O[C@H]2CC[C@@]3(C)[C@@H](CC[C@]4(C)[C@@H]3C=C[C@]35OC[C@@]6(CCC(C)(C)C[C@H]63)[C@@H](O)C[C@]54C)[C@]2(C)CO)[C@H](O)[C@@H](O[C@@H]2O[C@H](CO)[C@@H](O)[C@H](O)[C@H]2O)[C@H]1O | 5.15 | 6.79 | 10.6 | 9.69 | 27.5 | 29.4 | 0.96 | 0.765 | 0.155 | 0.3 | 0.0734 | 0.0918 | 35.7 | 16.7 | 15.5 |
| Nc1nc(Cl)nc2c1ncn2[C@H]1C[C@H](O)[C@@H](CO)O1 | 12.6 | 13.3 | 13.6 | 14 | 14.8 | 15.2 | 0.638 | 0.588 | 0.583 | 0.555 | 0.55 | 0.539 | 30.2 | 34.5 | 33.3 |
